Data: PubChem BioAssay (NCI)
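Test compounds were applied to cells in 96-well plates for 48 hours at 5 doses. The concentration for 50% growth inhibition is given as GI50. The concentration for full growth arrest is given as TGI.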

How the values were obtained:
Test in all cases: DTP human tumour cell line panel, 48 h
HCT-116 colon = test system: HCT-116 colon
NCI-H522 lung = test system: NCI-H522 lung
NCI-H226 lung = test system: NCI-H226 lung
KM12 colon = test system: KM12 colon
UACC-257 melanoma = test system: UACC-257 melanoma
K-562 leukemia = test system: K-562 leukemia
786-0 renal = test system: 786-0 renal
BT-549 breast = test system: BT-549 breast
MDA-MB-435 = test system: MDA-MB-435
A498 renal = test system: A498 renal

| Compound | GI50 (HCT-116 colon) | TGI (HCT-116 colon) | GI50 (NCI-H522 lung) | TGI (NCI-H522 lung) | GI50 (NCI-H226 lung) | TGI (NCI-H226 lung) | GI50 (KM12 colon) | TGI (KM12 colon) | GI50 (UACC-257 melanoma) | TGI (UACC-257 melanoma) | GI50 (K-562 leukemia) | TGI (K-562 leukemia) | GI50 (786-0 renal) | TGI (786-0 renal) | GI50 (BT-549 breast) | TGI (BT-549 breast) | GI50 (MDA-MB-435) | TGI (MDA-MB-435) | TGI (A498 renal) | GI50 (A498 renal) |
| --- | --- | --- | --- | --- | --- | --- | --- | --- | --- | --- | --- | --- | --- | --- | --- | --- | --- | --- | --- | --- |
| Cc1cc(S(N)(=O)=O)c(S/C(=N\NS(=O)(=O)c2ccc(Cl)cc2)c2ccc(Cl)cc2)cc1Cl | > 100 µM | > 100 µM | > 100 µM | > 100 µM | 92.4 µM | > 100 µM | 70.6 µM | > 100 µM | > 100 µM | > 100 µM | 45.3 µM | > 100 µM | > 100 µM | > 100 µM | > 100 µM | > 100 µM | > 100 µM | > 100 µM | – | – |
| Cc1c2c(nn1-c1ccc(S/N=C3\SCC(=O)CN3c3ccccc3)cc1)-c1ccccc1CC2 | 6.5 µM | 15.9 µM | 15.4 µM | > 50 µM | 9.75 µM | 27 µM | 46.5 µM | > 50 µM | 45.3 µM | > 50 µM | 17.6 µM | > 50 µM | 13.3 µM | > 50 µM | 11.1 µM | 34.5 µM | 16.8 µM | > 50 µM | – | – |
| Cc1cc(Cl)ccc1N1C(=O)C(=O)C(c2nc3ccccc3s2)C(=O)C1=O | – | > 100 µM | – | > 100 µM | – | > 100 µM | – | > 100 µM | – | > 100 µM | – | > 100 µM | – | > 100 µM | – | – | – | – | > 100 µM | – |
| CCOc1ccc(NC(=O)C2=C(C)NC(C)=C(C(=O)Nc3ccc(OCC)cc3)C2c2ccc([N+](=O)[O-])cc2)cc1 | – | – | – | > 100 µM | – | > 100 µM | – | > 100 µM | – | > 100 µM | – | > 100 µM | – | > 100 µM | – | – | – | – | 66.2 µM | – |
| C[n+]1c2ccccc2c(NC2CCNCC2)c2[nH]c3ccccc3c21 | 0.812 µM | 4.53 µM | 0.124 µM | 0.699 µM | 0.384 µM | 2.52 µM | 0.718 µM | 5.77 µM | 5.41 µM | 23.7 µM | – | – | 2.46 µM | 16.3 µM | 2.13 µM | 13.3 µM | 2.33 µM | 8.42 µM | 5.05 µM | 1.35 µM |
| O=C(CC1C(=O)Nc2ccccc2S1=O)Nc1cccc(Cl)c1 (stereo not given) | – | > 67.3 µM | – | – | – | > 76.4 µM | – | > 81.5 µM | – | > 100 µM | – | 29.2 µM | – | > 100 µM | – | 77.6 µM | – | > 100 µM | 47.3 µM | – |
| Cc1ccc(/C=C2\CCOC2=O)cc1 | > 100 µM | > 100 µM | – | – | > 100 µM | > 100 µM | > 100 µM | > 100 µM | > 100 µM | > 100 µM | > 100 µM | > 100 µM | > 100 µM | > 100 µM | > 100 µM | > 100 µM | – | – | 97.3 µM | 11.8 µM |
| O=C1C(c2ccccc2)=C(c2ccccc2)C(c2ccccc2)/C1=C1\C(=O)C(c2ccccc2)=C(c2ccccc2)C1c1ccccc1 (stereo not given) | – | > 100 µM | – | > 100 µM | – | > 100 µM | – | > 100 µM | – | > 100 µM | – | – | – | > 100 µM | – | – | – | – | > 100 µM | – |
| CC(C)(C)c1cc(C(O)(C(F)(F)F)C(F)(F)F)c2c(c1)C(C(F)(F)F)(C(F)(F)F)OC(c1ccccc1)(C(C)(C)C)N2 (stereo not given) | – | 13.2 µM | – | 8.38 µM | – | 9.32 µM | – | 17.6 µM | – | 19.7 µM | – | 11.6 µM | – | > 100 µM | – | – | – | – | – | – |
| O=C(/C=C/c1ccccc1F)C(c1ccccc1)c1ccccc1 | – | 6.4 µM | – | 8.29 µM | – | 25.3 µM | – | 15 µM | – | 17.7 µM | – | 9.74 µM | – | 5.8 µM | – | – | – | – | – | – |
| O=C(NC(=S)NS(=O)(=O)c1ccc(N2N=C3c4ccccc4CC3C2c2cccs2)cc1)c1ccccc1 (stereo not given) | – | – | 20.5 µM | 80.9 µM | – | – | 28.2 µM | 91.8 µM | 42.8 µM | > 100 µM | – | – | 27.9 µM | > 100 µM | 21.6 µM | > 100 µM | 21.7 µM | 60.6 µM | – | – |
| CC(=O)O[C@H]1CC[C@@]2(C)C(=CC[C@@H]3C2CC[C@]2(C)Nc4oncc4CC32)C1 (stereo not given in full) | – | 30.4 µM | – | – | – | 49.5 µM | – | 61.4 µM | – | > 100 µM | – | 21.1 µM | – | > 100 µM | – | – | – | – | > 100 µM | – |
| O=C(OCCOCCOC(=O)c1c[nH]cc1-c1ccccc1)c1c[nH]cc1-c1ccccc1 | – | 31.6 µM | – | 29.6 µM | – | 48.9 µM | – | 44.7 µM | – | 33.1 µM | – | > 100 µM | – | 73.1 µM | – | – | – | – | 53.1 µM | – |
| CN(C)/[N+]([O-])=N/Oc1cc(Nc2ccc(C(=O)O)cc2)c([N+](=O)[O-])cc1[N+](=O)[O-] | 20.9 µM | 41.6 µM | 28.5 µM | > 100 µM | 27.4 µM | 70.4 µM | 14.6 µM | 30.8 µM | 19.4 µM | 35.5 µM | 38.2 µM | > 100 µM | 22.2 µM | 55.3 µM | 18.5 µM | 34.6 µM | 19.8 µM | 39.2 µM | – | – |
| CCN1C(=O)N(c2c(F)c(OC)cc(OC)c2F)Cc2cnc3[nH]c(CN4CCOCC4)cc3c21 | 1.84 µM | 19.4 µM | 3.12 µM | > 100 µM | 0.8 µM | > 100 µM | 5.08 µM | > 100 µM | 4.69 µM | > 100 µM | 8.66 µM | > 100 µM | 2.84 µM | 30.1 µM | 0.0491 µM | 15.7 µM | 4.65 µM | > 100 µM | – | – |
| Cc1ccc(S(=O)(=O)N2CCCCC2CCO)cc1 (stereo not given) | – | > 100 µM | – | > 100 µM | – | > 100 µM | – | > 100 µM | – | > 100 µM | – | > 100 µM | – | > 100 µM | – | – | – | – | > 100 µM | – |
| C[Si](C)(C)/C(Br)=C\CCN1C(=O)CCC1O (stereo not given) | – | > 100 µM | – | > 100 µM | – | > 100 µM | – | > 100 µM | – | > 100 µM | – | > 100 µM | – | > 100 µM | – | – | – | – | > 100 µM | – |
| Cc1cc2c(=O)cc(-c3ccc(Cl)cc3)oc2c(C(=O)O)c1C | – | > 100 µM | – | > 100 µM | – | > 100 µM | – | > 100 µM | – | > 100 µM | – | > 100 µM | – | > 100 µM | – | – | – | – | – | – |
| CC(=O)Nc1ccc(C(=O)N[C@@H]2C(=O)N3[C@@H]2SC(C)(C)[C@@H]3C(=O)O)cn1 | – | > 100 µM | – | – | – | > 100 µM | – | > 100 µM | – | > 100 µM | – | > 100 µM | – | > 100 µM | – | > 100 µM | – | > 100 µM | > 100 µM | – |
